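Assay format: 96-well plates, 48-hour exposure. GI50 = concentration required for 50% inhibition of growth.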 Activity calls are given as the source filed them. Rule as the data show it: active = GI50 up to about 1.1 µM and inactive = higher.

We go through 4 molecules from ChEMBL document CHEMBL1201862, “PubChem BioAssay data set” (2004).

Some test systems named below: OVCAR-5; SNB-75; NCI-H460; NCI-H23; UO-31; SW-620; MOLT-4; UACC-62; RXF 393; RPMI-8226; SK-MEL-2; CCRF-CEM; ACHN; Malme-3M; KM12; TK-10; SN12C; OVCAR-8; HOP-62; SK-MEL-28.
What all share (assay): NCI-60 cell line screen, 48 h

In the case of `COC(=O)c1ccc(C)cc1C1CN=NC12Cc1cc(C)ccc1C2=O` (stereo not given), the GI50 is 30 µM (inactive) with OVCAR-5; 8.61 µM (inactive) with SNB-75; 27.5 µM (inactive) in the experiment with NCI-H460; 18.1 µM (inactive) with NCI-H23; 24 µM (inactive) in the experiment with UO-31; 5.35 µM (inactive) with SW-620. The GI50 with MOLT-4 was 10.3 µM (inactive); with UACC-62 it was 8 µM (inactive); with RXF 393, 13.8 µM (inactive); with RPMI-8226, 16.4 µM (inactive); with SK-MEL-2, 8.22 µM (inactive); in the experiment on CCRF-CEM, 15.9 µM (inactive). Further, the GI50 in the experiment with ACHN was 28.1 µM (inactive); in the experiment on Malme-3M, 13.2 µM (inactive); with KM12, 6.14 µM (inactive); with TK-10, 22.8 µM (inactive); with SN12C, 23.9 µM (inactive); in the experiment with OVCAR-8, 27.2 µM (inactive). Further, the GI50 is 20.1 µM (inactive) in the experiment with HOP-62 and 23.2 µM (inactive) in the experiment on SK-MEL-28.
Consider `COC(OC)C1OC(CO)C(n2ccc(N)nc2=O)C1O` (stereo not given), for which the GI50 in the experiment on OVCAR-5, with SNB-75, in the experiment on NCI-H460, in the experiment on NCI-H23, in the experiment on UO-31 and with SW-620 was > 100 µM (inactive) throughout. Besides, the GI50 with MOLT-4, in the experiment on UACC-62, in the experiment with RXF 393, in the experiment with RPMI-8226, in the experiment with SK-MEL-2 and with CCRF-CEM was > 100 µM (inactive) in each case. The GI50 with ACHN, with Malme-3M, in the experiment with KM12, in the experiment with TK-10, with SN12C and with OVCAR-8 was > 100 µM (inactive) throughout. The GI50 in the experiment with HOP-62 and with SK-MEL-28 was > 100 µM (inactive) in each case.
`C[C@H]1CCC/C=C/[C@@H]2C[C@H](OC(=O)CN(C)C)C[C@H]2[C@H](O)/C=C/C(=O)O1`: the GI50 is 0.102 µM (active) in the experiment with OVCAR-5; 0.155 µM (active) with SNB-75; 0.365 µM (active) in the experiment on NCI-H460; 0.129 µM (active) with NCI-H23; 0.0581 µM (active) with UO-31; 0.156 µM (active) in the experiment on SW-620. For the same molecule, the GI50 with MOLT-4 is 0.187 µM (active); in the experiment with UACC-62 it was 0.108 µM (active); with RXF 393, 0.0383 µM (active); in the experiment on RPMI-8226 it was 0.303 µM (active); with SK-MEL-2 it was 0.153 µM (active); in the experiment with CCRF-CEM it was 0.284 µM (active). Moreover, the GI50 in the experiment with ACHN was 0.2 µM (active); in the experiment on Malme-3M, 0.0738 µM (active); in the experiment on KM12, 0.0522 µM (active); in the experiment with TK-10, 0.1 µM (active); in the experiment with SN12C it was 0.158 µM (active); in the experiment with OVCAR-8, 0.097 µM (active). Also, the values for the GI50 with HOP-62 and in the experiment on SK-MEL-28 were 0.21 µM (active) and 0.138 µM (active), respectively.
For `Brc1ccc2[nH]cc([C@H]3CN[C@@H](c4c[nH]c5ccc(Br)cc45)CN3)c2c1`, the GI50 with OVCAR-5 is 2.75 µM (inactive); in the experiment with SNB-75, 1.83 µM (inactive); with NCI-H460, 2.36 µM (inactive); with NCI-H23 it was 1.6 µM (inactive); in the experiment on UO-31 it was 1.91 µM (inactive); in the experiment on SW-620, 2.51 µM (inactive). Further, the GI50 in the experiment on MOLT-4 is 2.11 µM (inactive); in the experiment on UACC-62, 5.04 µM (inactive); in the experiment on RXF 393, 2.65 µM (inactive); in the experiment on RPMI-8226, 2.16 µM (inactive); in the experiment on SK-MEL-2, 2.09 µM (inactive); in the experiment with CCRF-CEM, 2.22 µM (inactive). Further, the GI50 in the experiment with ACHN was 1.93 µM (inactive); with Malme-3M it was 2.2 µM (inactive); in the experiment on KM12, 1.76 µM (inactive); in the experiment on TK-10, 2.26 µM (inactive); with SN12C it was 2.91 µM (inactive); with OVCAR-8, 1.79 µM (inactive). Moreover, the GI50 in the experiment with HOP-62 was 3.37 µM (inactive); in the experiment with SK-MEL-28 it was 8.05 µM (inactive).
